Data published in PubChem BioAssay AID330 (DTP/NCI, 2004).
“And” between values parts separate entries of the source, which are not always exact repeats. Equal values may be shown once. Inconclusive results and toxic doses are left out.

Tested on: P388 leukemia ip, CD2F1 mice, survival T/C
Experiment: NCI In Vivo Anticancer Drug Screen. Data for tumor model P388 Leukemia (intraperitoneal) in CD2F1 (CDF1) mice
Conditions: endpoint: median survival time, higher = longer survival
How it was run: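 Mice carrying the transplanted tumor received test compound or vehicle. Survival was recorded in each group, and the value is the treated-group measurement divided by that of the vehicle-treated control group.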

[1] = dose: 50.0 mg/kg/injection, schedule: Q01DX005 (ip), vehicle: saline with Tween-80
[2] = dose: 100.0 mg/kg/injection, schedule: Q01DX005 (ip), vehicle: saline with Tween-80
[3] = dose: 60.0 mg/kg/injection, schedule: Q01DX005 (ip), vehicle: saline with Tween-80
[4] = dose: 120.0 mg/kg/injection, schedule: Q01DX005 (ip), vehicle: saline with Tween-80
[5] = dose: 240.0 mg/kg/injection, schedule: Q01DX005 (ip), vehicle: saline with Tween-80
[6] = dose: 50.0 mg/kg/injection, schedule: Q01DX009 (ip), vehicle: saline with Tween-80
[7] = dose: 100.0 mg/kg/injection, schedule: Q01DX009 (ip), vehicle: saline with Tween-80
[8] = dose: 200.0 mg/kg/injection, schedule: Q01DX009 (ip), vehicle: saline with Tween-80
[9] = dose: 25.0 mg/kg/injection, schedule: Q01DX005 (ip), vehicle: saline with Tween-80

With `CC1=C(/C=C/Cl)CC(Cl)C(C)(Cl)C1` (centres undefined) the T/C (dose: 2.5 mg/kg/injection, schedule: Q01DX009 (ip), vehicle: Klucel (hydroxypropylcellulose) (HPC)) was 102 % of control, the T/C (dose: 5.0 mg/kg/injection, schedule: Q01DX009 (ip), vehicle: Klucel (hydroxypropylcellulose) (HPC)) was 102 % of control and the T/C (dose: 10.0 mg/kg/injection, schedule: Q01DX009 (ip), vehicle: Klucel (hydroxypropylcellulose) (HPC)) was 93 % of control. For the same compound, the T/C (dose: 20.0 mg/kg/injection, schedule: Q01DX009 (ip), vehicle: Klucel (hydroxypropylcellulose) (HPC)) was 99 % of control.
`CC(=O)OCC1OC(n2cccnc2=O)C(OC(C)=O)C1OC(C)=O` (centres undefined) was tested, and the T/C (dose: 50.0 mg/kg/injection, schedule: Q01DX005 (ip), vehicle: saline) was 107 % of control, the T/C (dose: 100.0 mg/kg/injection, schedule: Q01DX005 (ip), vehicle: saline) was 107 % of control and the T/C (dose: 200.0 mg/kg/injection, schedule: Q01DX005 (ip), vehicle: saline) was 107 % of control. The T/C (dose: 400.0 mg/kg/injection, schedule: Q01DX005 (ip), vehicle: saline) was 102 % of control.
For `CC(=O)O[C@@H]1C[C@H](O)[C@@]23COC(O)[C@H]1[C@@H]2C[C@@H](O)[C@@]1(C)C2C(=O)C[C@@H](c4ccoc4)[C@]2(C)CC[C@@H]13` (some centres undefined), the T/C (dose: 2.4 mg/kg/injection, schedule: Q01DX009 (ip), vehicle: Klucel (hydroxypropylcellulose) (HPC)) was 99 % of control, the T/C (dose: 18.75 micrograms/kg/injection, schedule: Q01DX009 (ip), vehicle: Klucel (hydroxypropylcellulose) (HPC)) was 107 % of control and the T/C (dose: 37.5 micrograms/kg/injection, schedule: Q01DX009 (ip), vehicle: Klucel (hydroxypropylcellulose) (HPC)) was 117 % of control. For the same compound, the T/C (dose: 75.0 micrograms/kg/injection, schedule: Q01DX009 (ip), vehicle: Klucel (hydroxypropylcellulose) (HPC)) was 96 % of control and the T/C (dose: 150.0 micrograms/kg/injection, schedule: Q01DX009 (ip), vehicle: Klucel (hydroxypropylcellulose) (HPC)) was 101 % of control.
With `CC(C)C(=O)N1CCCCCN1C(=O)C(C)C` the T/C (dose: 100.0 mg/kg/injection, schedule: Q01DX001 (ip), vehicle: suspension in saline) was 100 % of control, the T/C (dose: 200.0 mg/kg/injection, schedule: Q01DX001 (ip), vehicle: suspension in saline) was 95 % of control and the T/C (dose: 400.0 mg/kg/injection, schedule: Q01DX001 (ip), vehicle: suspension in saline) was 94 % of control.
With `CC/C(=C(/CC)c1ccc(O)cc1)c1ccc(O)cc1` the T/C (dose: 50.0 mg/kg/injection, schedule: Q01DX008 (ip), vehicle: saline with Tween-80) was 101 % of control, the T/C (dose: 100.0 mg/kg/injection, schedule: Q01DX008 (ip), vehicle: saline with Tween-80) was 97 % of control and the T/C (dose: 200.0 mg/kg/injection, schedule: Q01DX008 (ip), vehicle: saline with Tween-80) was 106 % of control. The T/C (dose: 400.0 mg/kg/injection, schedule: Q01DX008 (ip), vehicle: saline with Tween-80) was 99 % of control.
In the case of `Cc1ccc(C2SCC(=O)N2c2nncs2)s1` (centres undefined), the T/C [1] is reported as 100 % of control, the T/C [2] is reported as 92 % of control and the T/C (dose: 200.0 mg/kg/injection, schedule: Q01DX005 (ip), vehicle: saline with Tween-80) is reported as 94 % of control.
In the case of `CSC1(CCC#N)C(=O)Nc2ccccc21` (centres undefined), the T/C (dose: 200.0 mg/kg/injection, schedule: Q04DX003 (ip), vehicle: saline with Tween-80) is reported as 102 % of control and the T/C (dose: 400.0 mg/kg/injection, schedule: Q04DX003 (ip), vehicle: saline with Tween-80) is reported as 108 % of control.
In the case of `[Cl][Pt+2][Cl].[NH-]c1ccccc1[NH-]`, the T/C (dose: 6.25 mg/kg/injection, schedule: Q04DX002 (ip), vehicle: saline with Tween-80) is reported as 163 % of control, the T/C (dose: 12.5 mg/kg/injection, schedule: Q04DX002 (ip), vehicle: saline with Tween-80) is reported as 193 % of control and the T/C (dose: 12.5 mg/kg/injection, schedule: Q04DX002 (ip), vehicle: saline) is reported as 167 % of control. For the same compound, the T/C (dose: 25.0 mg/kg/injection, schedule: Q04DX002 (ip), vehicle: saline with Tween-80) was 110 % of control.
In the case of `O=C1c2c3c(c4c(c2C(=O)c2c5c(c6c(c21)CCC6)CCC5)CCC4)CCC3`, the T/C (dose: 10.0 mg/kg/injection, schedule: Q01DX009 (ip), vehicle: saline with Tween-80) is reported as 95 % of control, the T/C (dose: 20.0 mg/kg/injection, schedule: Q01DX009 (ip), vehicle: saline with Tween-80) is reported as 96 % of control and the T/C (dose: 40.0 mg/kg/injection, schedule: Q01DX009 (ip), vehicle: saline with Tween-80) is reported as 99 % of control.
For `N#CC1CCCC(C#N)N1CN1C(C#N)CCCC1C#N` (centres undefined), the T/C (dose: 50.0 mg/kg/injection, schedule: Q01DX005 (ip), vehicle: Klucel (hydroxypropylcellulose) (HPC)) was 97 % of control and the T/C (dose: 100.0 mg/kg/injection, schedule: Q01DX005 (ip), vehicle: Klucel (hydroxypropylcellulose) (HPC)) was 88 % of control.
In the case of `CN(C)C(=O)NO`, the T/C (dose: 60.0 mg/kg/injection, schedule: Q01DX005 (ip), vehicle: saline) is reported as 103 % of control, the T/C (dose: 120.0 mg/kg/injection, schedule: Q01DX005 (ip), vehicle: saline) is reported as 99 % of control and the T/C (dose: 240.0 mg/kg/injection, schedule: Q01DX005 (ip), vehicle: saline) is reported as 97 % of control.
With `CCCCCC(CN(C)C)C(=O)CC(SCC)c1ccccc1` (centres undefined) the T/C (dose: 12.5 mg/kg/injection, schedule: Q01DX009 (ip), vehicle: water) was 111 % of control and the T/C (dose: 25.0 mg/kg/injection, schedule: Q01DX009 (ip), vehicle: water) was 100 % of control.
`COc1cc2c(c(OC)c1OC)CCc1cn[nH]c1-2` was tested, and the T/C (dose: 100.0 mg/kg/injection, schedule: Q01DX001 (ip), vehicle: Klucel (hydroxypropylcellulose) (HPC)) was 116 % of control, the T/C (dose: 200.0 mg/kg/injection, schedule: Q01DX001 (ip), vehicle: Klucel (hydroxypropylcellulose) (HPC)) was 123 % of control and the T/C (dose: 400.0 mg/kg/injection, schedule: Q01DX001 (ip), vehicle: Klucel (hydroxypropylcellulose) (HPC)) was 116 % of control.
In the case of `COc1ccccc1OCC1CCC(=O)O1` (centres undefined), the T/C (dose: 100.0 mg/kg/injection, schedule: Q04DX002 (ip), vehicle: Klucel (hydroxypropylcellulose) (HPC)) is reported as 95 % of control, the T/C (dose: 200.0 mg/kg/injection, schedule: Q04DX002 (ip), vehicle: Klucel (hydroxypropylcellulose) (HPC)) is reported as 103 % of control and the T/C (dose: 400.0 mg/kg/injection, schedule: Q04DX002 (ip), vehicle: Klucel (hydroxypropylcellulose) (HPC)) is reported as 101 % of control.
In the case of `O=[n+]1c2c(n([O-])c3ccccc31)C(Br)CCCC2Br` (centres undefined), the T/C [3] is reported as 100 % of control, the T/C [4] is reported as 95 % of control and the T/C [5] is reported as 89 % of control.
In the case of `CCCCNc1cc(C(F)(F)F)cc(N)c1N`, the T/C (dose: 50.0 mg/kg/injection, schedule: Q01DX005 (ip), vehicle: saline + Tween-80 + alcohol) is reported as 105 % of control, the T/C (dose: 100.0 mg/kg/injection, schedule: Q01DX005 (ip), vehicle: saline + Tween-80 + alcohol) is reported as 108 % of control and the T/C (dose: 200.0 mg/kg/injection, schedule: Q01DX005 (ip), vehicle: saline + Tween-80 + alcohol) is reported as 109 % of control.
With `O=C(Nc1nccs1)Nc1ccc(Br)cc1C(F)(F)F` the T/C [6] was 110 % of control, the T/C [7] was 113 % of control and the T/C [8] was 113 % of control.
`O=Cc1ccc(O)c(O)c1` was tested, and the T/C (dose: 50.0 mg/kg/injection, schedule: Q01DX009 (ip), vehicle: saline) was 106 % of control and 109 % of control, the T/C (dose: 100.0 mg/kg/injection, schedule: Q01DX009 (ip), vehicle: saline) was 110 % of control and the T/C (dose: 400.0 mg/kg/injection, schedule: Q01DX009 (ip), vehicle: saline) was 107 % of control.
In the case of `Cn1nc(C#N)c(=O)[nH]c1=O`, the T/C (dose: 12.5 mg/kg/injection, schedule: Q01DX005 (ip), vehicle: saline with Tween-80) is reported as 99 % of control, the T/C [9] is reported as 97 % of control and the T/C [1] is reported as 99 % of control and 100 % of control.
With `COc1cc2c(cc1OC)C(c1ccc(S(=O)(=O)C(C)C)cc1)NCC2` (centres undefined) the T/C (dose: 50.0 mg/kg/injection, schedule: Q01DX009 (ip), vehicle: Klucel (hydroxypropylcellulose) (HPC)) was 89 % of control, the T/C (dose: 100.0 mg/kg/injection, schedule: Q01DX009 (ip), vehicle: Klucel (hydroxypropylcellulose) (HPC)) was 101 % of control and the T/C (dose: 200.0 mg/kg/injection, schedule: Q01DX009 (ip), vehicle: Klucel (hydroxypropylcellulose) (HPC)) was 108 % of control.
With `C[C@]12CCC(=O)C=C1CC[C@@H]1[C@@H]2[C@@H](O)C[C@@]2(C)[C@H]1CC[C@]2(O)C(=O)COC(=O)c1ccc([N+](=O)[O-])cc1Cl` the T/C [6] was 109 % of control, the T/C [7] was 100 % of control and the T/C [8] was 109 % of control and 86 % of control. The T/C (dose: 400.0 mg/kg/injection, schedule: Q01DX009 (ip), vehicle: saline with Tween-80) was 86 % of control.
For `CN(C)c1ccnc2c1cnn2C1OC(CO)C(O)C1O` (centres undefined), the T/C [9] was 97 % of control, the T/C [1] was 108 % of control and the T/C [2] was 106 % of control.
With `CCCCCCCCCCCCCC[N+]1(CC)CCCCCC1` the T/C (dose: 0.04 mg/kg/injection, schedule: Q01DX009 (ip), vehicle: saline) was 100 % of control and 96 % of control.
For `O=C(/C=C/c1c(-c2ccccc2)[nH]c2ccccc12)c1ccccc1[N+](=O)[O-]`, the T/C [3] was 95 % of control, the T/C [4] was 96 % of control and the T/C [5] was 92 % of control.
